Series [1] concerns breast cancer cell line MA782/5S-B. The note with it: for Number of live animals remaining in the groups after 30 days of treatment: 30 mice per group. The protocol: (§1) The animals used to generate the breast cancer cells for the experiments were female mice derived from an outbreed line of mouse (obtainable from the Chinese Academy of Military Medical Sciences, Beijing, China), having an average body weight of about 18 to 20 gram. About […] viable tumor cells of the breast cancer cell line MA782/5S-B (obtainable from the Cancer Institute, Chinese Academy of Medical Sciences, Beijing, China) in about 0.2 ml culture suspension were injected subcutaneously into the animals.
The survival time of mice after tumor injection and treatment was studied.
(§2) The biological composition comprising 10^8 cells per ml of activated and conditioned yeast cells of the strain Saccharomyces carlsbergensis Hansen strain AS2.441 was prepared by the methods described in Section 5.1 and subsections therein.
The animals were prepared in a similar manner as described in Section 8.1.
The mice injected with tumor cells were immediately divided into 4 experimental groups of ten mice per group and one control group. The four experimental groups were triplicated (i.e., using a total of 120 mice in the experimental groups). In group 2AY, the mice received 0.5 ml of the biological composition once per day. In group 2NY, the mice received 0.5 ml of the untreated yeast cells once per day. In group 2CTX, the mice were injected subcutaneously with 45 mg of cyclophosphamide (CTX) per kg body weight per day. In group 2CK1, the mice received 0.5 ml of physiological saline once per day.
The mice received the biological compositions, untreated yeast cells, CTX or saline on the same day as the tumor cells were transplanted. The mice in group 2CK2 also started receiving saline on the same day as the other four groups. The biological compositions, untreated yeast cells and saline were administered orally by a feeding tube and the CTX by subcutaneous injection for 30 consecutive days. The mice were observed over 6 months from the day of tumor inoculation and survival was recorded. The weight of the mice and the weight of the tumor were determined by standard techniques.

Series [2] has the same test system. The note with it: 31st day from tumor inoculation, 30 consecutive days treatment; AY/NY 0.3 ml oral once per day, CTX 30 mg/kg/day s.c. The protocol: as §2, §1
The mice injected with tumor cells were immediately divided into 4 experimental groups of ten mice per group and one control group. The four experimental groups were triplicated (i.e., using a total of 120 mice in the experimental groups).
The mice received the biological compositions, untreated yeast cells, CTX or saline on the same day as the tumor cells were transplanted. The mice in group CK2 also started receiving saline on the same day as the other four groups. […] The weight of the mice and the weight of the tumor were determined by standard techniques.

Series [3] concerns breast cancer cell line Ca615-B. Description: Tumor growth in 615 strain mouse model of human breast cancer (Example 6). The format is in vivo. The note with it: 31st day from tumor inoculation, 30 consecutive days treatment; AY/NY 0.3 ml oral once per day, TSPA 1.5 mg/kg/day i.v. As for the experimental part:
In group TSPA, the mice were injected intravenously with 1.5 mg of thiotepa (TSPA) per kg body weight per day.

For series [4] the test system is unchanged. As to the kind of experiment: Survival time in 615 strain mouse model of human breast cancer (Example 7). The note with it: for Number of live animals remaining in the groups after 30 days of treatment: 30 mice per group. The class given is in vivo. As for the experimental part:
In group 2TSPA, the mice were injected intravenously with 2.5 mg of thiotepa (TSPA) per kg body weight per day.

Where [5] appears, read: mice that survived, observed over 6 months, 2AY/2NY 0.5 ml oral once per day, 2TSPA 2.5 mg/kg/day i.v., 30 days.
Setting [6] is: mice that survived, observed over 6 months, 2AY/2NY 0.5 ml oral once per day, 2CTX 45 mg/kg/day s.c., 30 days.

Where two headings read alike, the source gives them in different places.

As to `O=P1(N(CCCl)CCCl)NCCCO1` (stereo not drawn) [CTX, cyclophosphamide], the “Number of live animals remaining in the groups after 30 days of treatment” value (“Number of live animals remaining” for short) in series [1] (0 month after cessation of treatment, 2AY/2NY 0.5 ml oral once per day, 2CTX 45 mg/kg/day s.c.) is given as 30; in series [1] (1 month after cessation of treatment, 2AY/2NY 0.5 ml oral once per day, 2CTX 45 mg/kg/day s.c.), 30; in series [1] (2 months after cessation of treatment, 2AY/2NY 0.5 ml oral once per day, 2CTX 45 mg/kg/day s.c.), 17; in series [1] (3 months after cessation of treatment, 2AY/2NY 0.5 ml oral once per day, 2CTX 45 mg/kg/day s.c.), 0; in series [1] (4 months after cessation of treatment, 2AY/2NY 0.5 ml oral once per day, 2CTX 45 mg/kg/day s.c.), 0; in series [1] (5 months after cessation of treatment, 2AY/2NY 0.5 ml oral once per day, 2CTX 45 mg/kg/day s.c.), 0. The “Number of live animals remaining” value in series [1] (6 months after cessation of treatment, 2AY/2NY 0.5 ml oral once per day, 2CTX 45 mg/kg/day s.c.) is on record as 0. The “survival outcome (in words)” value in series [1] (observed over 6 months, 2NY 0.5 ml per day, 2CTX 45 mg/kg/day) is given as “all died during the experiment”. For the same compound, in series [2], the “mean weight of mice and standard deviation” value stood at 19.4 ± 2.2 g. Further, the “mean weight of tumor nodules and standard deviation” value in series [2] was 3.1 ± 1.7 g.
For the compound `S=P(N1CC1)(N1CC1)N1CC1` [TSPA, thiotepa], the results for the “mean weight of mice and standard deviation” value in series [3], in series [4] (setting [5]) and in series [1] (setting [6]) were 20 ± 2.4 g, “all animals dead” and “all animals dead”, respectively. The “mean weight of tumor nodules and standard deviation” value in series [3] is recorded as 3.1 ± 1.6 mg; in series [4] (setting [5]), “all animals dead”; in series [1] (setting [6]), “all animals dead”. Further, the “Number of live animals remaining” value in series [4] (0 month after cessation of treatment, 2AY/2NY 0.5 ml oral once per day, 2TSPA 2.5 mg/kg/day i.v.) was found to be 30; in series [4] (1 month after cessation of treatment, 2AY/2NY 0.5 ml oral once per day, 2TSPA 2.5 mg/kg/day i.v.) it was 30; in series [4] (2 months after cessation of treatment, 2AY/2NY 0.5 ml oral once per day, 2TSPA 2.5 mg/kg/day i.v.) it was 23; in series [4] (3 months after cessation of treatment, 2AY/2NY 0.5 ml oral once per day, 2TSPA 2.5 mg/kg/day i.v.) it was 11; in series [4] (4 months after cessation of treatment, 2AY/2NY 0.5 ml oral once per day, 2TSPA 2.5 mg/kg/day i.v.), 4; in series [4] (5 months after cessation of treatment, 2AY/2NY 0.5 ml oral once per day, 2TSPA 2.5 mg/kg/day i.v.), 0. Besides, the “Number of live animals remaining” value in series [4] (6 months after cessation of treatment, 2AY/2NY 0.5 ml oral once per day, 2TSPA 2.5 mg/kg/day i.v.) is 0. Moreover, the “survival outcome (in words)” value in series [4] (observed over 6 months, 2AY/2NY 0.5 ml per day, 2TSPA 2.5 mg/kg/day) was “all died during the experiment”.
